Test [1] relates to NF1-MPNST PDX models. As to the kind of experiment: tumor growth in NF1-MPNST patient-derived xenograft (PDX) models in NRG mice. The class given is in vivo. The settings on record: oral gavage, TNO155 7.5 mg/kg, ribociclib 75 mg/kg once daily, up to 42 days. Here is the method:
The PDX models of Example 1 were developed and characterized according to Dehrner, et al., JCI Insight 2021: 6(6):e146351 and Pollard, K., et al., Sci Data, 2020; 7:184). NRG (NOD-Rag1^null IL 2rg^null, NOD rag gamma) mice are used for all experiments.
Tumor response, survival and toxicity data were collected and analyzed. To form tumors, 1-2 million NF1-MPNST PDX-derived cells (JH-2-031, JH-2-079, JH-2-002, WU-225, WU-386, or WU-545)) in 50% Matrigel (BD Biosciences) were injected subcutaneously in 4- to 6-week-old female NRG mice. The tumors were measured and mice weighed twice weekly once tumors began to form. Drugs were given beginning when tumors reached 150-200 mm^3. Mice were treated with vehicle, single agent (A or B or C) or combination (A+B or B+C) for up to 42 days. Each group consisted of three to five mice. Tumor volume was calculated using the formula: V=L×W2 (π/6), where L=longest diameter and W=width.

The subject of test [2] is p-ERK in WU-386 tumors. Kind of test: pharmacodynamic p-ERK levels in WU-386 PDX tumors. The settings on record: WU-386 tumors collected 4-hour post end-point treatment (4 weeks). In kind it is in vivo, mice.
Test [3] has as its system ten native NF1-MPNST cell lines. Kind of test: cell number by trypan blue exclusion, native NF1-MPNST cell lines. In kind it is cell-based. The following applies: TNO155 0.3, 1, 3 μM; ribociclib 1, 3 μM; about 1 week. The source says: (§1) Cell numbers were counted using trypan blue exclusion assay (Sigma-Aldrich) and normalized to the DMSO control.
Test [4] relates to trametinib resistant lines (ST8814Res and NF90.8Res). As to the kind of experiment: cell number by trypan blue exclusion, trametinib resistant lines. The class given is cell-based. The following applies: TNO155 0.3, 1, 3 μM, ribociclib 1, 3 μM, about 1 week.
Text: as §1

Test [5] relates to Rb-positive cell lines derived from diverse cancer types. Kind of test: Rb phosphorylation and cell cycle progression in Rb-positive cell lines. The following applies: more than 40 Rb-positive cell lines. In kind it is cell-based.

SMILES strings stand for the structures.

`C[C@@H]1OCC2(CCN(c3cnc(Sc4ccnc(N)c4Cl)c(N)n3)CC2)[C@@H]1N` [TNO155, (3S,4S)-8-(6-amino-5-((2-amino-3-chloropyridin-4-yl)thio)pyrazin-2-yl)-3-methyl-2-oxa-8-azaspiro[4.5]decan-4-amine]: the “anti-tumor activity / tumor growth inhibition in PDX models” value in test [1] is “substantial anti-tumor activity as a single agent”. Moreover, the “p-ERK levels in tumors” value in test [2] was “decrease in p-ERK levels”. The “cell number response normalized to DMSO control” value in test [3] is on record as “partial sensitivity”; in test [4] it was “limited activity”.
In the case of `CN(C)C(=O)c1cc2cnc(Nc3ccc(N4CCNCC4)cn3)nc2n1C1CCCC1` [Ribociclib, 7-cyclopentyl-N,N-dimethyl-2-((5-(piperazin-1-yl)pyridin-2-yl)amino)-7H-pyrrolo[2,3-d]pyrimidine-6-carboxamide], the “Retinoblastoma protein (Rb) phosphorylation and G1 to S phase cell cycle progression” value in test [5] is “inhibited Retinoblastoma protein (Rb) phosphorylation and interfered with G1 to S phase cell cycle progression”.
